ChEMBL document CHEMBL4396887, “Five-Membered N-Heterocyclic Scaffolds as Novel Amino Bioisosteres at γ-Aminobutyric Acid (GABA) Type A Receptors and GABA Transporters” (J Med Chem, 2019)
Each block holds one molecule with its values, some of them ahead of it. Calls of active or inactive are those of the source. The rule behind the calls is not given here.

Key:
[1] = Ionization constant, pKa2 of the compound at 1 mM by potentiometric titration assay; format: physicochemical
[2] = molecular target: T1, Gamma-aminobutyric acid receptor subunit alpha-4/beta-2/gamma-2 (Homo sapiens, UniProt P47870+P18507+P48169); assay: Agonist activity at recombinant human GABA-A alpha4beta2gamma2S receptor transiently expressed in human tsA201 cells at >= 300 uM incubated for 30 mins and measured up to 90 secs by FMP dye based FLIPR membrane potential blue assay; format: cell-based
[3] = molecular target: T2, Gamma-aminobutyric acid receptor subunit rho-1 (Homo sapiens, UniProt P24046); assay: Agonist activity at recombinant human GABA-A rho-1 receptor transiently expressed in human tsA201 cells at 300 uM incubated for 30 mins and measured up to 90 secs by FMP dye based FLIPR membrane potential blue assay; format: cell-based
[4] = molecular target: T3, GABA-A receptor; alpha-1/beta-2/gamma-2 (Homo sapiens) (UniProt P14867+P47870+P18507); assay: Agonist activity at recombinant human GABA-A alpha1beta2gamma2S receptor transiently expressed in human tsA201 cells incubated for 30 mins and measured up to 90 secs by FMP dye based FLIPR membrane potential blue assay; format: cell-based
[5] = molecular target: T3, GABA-A receptor; alpha-1/beta-2/gamma-2 (Homo sapiens); assay: Agonist activity at recombinant human GABA-A alpha1beta2gamma2S receptor transiently expressed in human tsA201 cells at >= 1000 uM incubated for 30 mins and measured up to 90 secs by FMP dye based FLIPR membrane potential blue assay; format: cell-based
[6] = molecular target: T2, Gamma-aminobutyric acid receptor subunit rho-1; assay: Antagonist activity at recombinant human GABA-A rho-1 receptor transiently expressed in human tsA201 cells incubated for 30 mins and measured up to 90 secs by FMP dye based FLIPR membrane potential blue assay; format: cell-based
[7] = molecular target: T3, GABA-A receptor; alpha-1/beta-2/gamma-2 (Homo sapiens); assay: Agonist activity at recombinant human GABA-A alpha1beta2gamma2S receptor transiently expressed in human tsA201 cells at >= 300 uM incubated for 30 mins and measured up to 90 secs by FMP dye based FLIPR membrane potential blue assay; format: cell-based
Homo sapiens [8] = organism: Homo sapiens; assay: Agonist activity at recombinant human GABA-A alpha3beta2gamma2S receptor transiently expressed in human tsA201 cells at >= 100 uM incubated for 30 mins and measured up to 90 secs by FMP dye based FLIPR membrane potential blue assay; format: cell-based
Homo sapiens [9] = organism: Homo sapiens
[10] = molecular target: T2, Gamma-aminobutyric acid receptor subunit rho-1; assay: Agonist activity at recombinant human GABA-A rho-1 receptor transiently expressed in human tsA201 cells at >= 100 uM incubated for 30 mins and measured up to 90 secs by FMP dye based FLIPR membrane potential blue assay; format: cell-based
[11] = molecular target: T1, Gamma-aminobutyric acid receptor subunit alpha-4/beta-2/gamma-2; assay: Agonist activity at recombinant human GABA-A alpha4beta2gamma2S receptor transiently expressed in human tsA201 cells at >= 1000 uM incubated for 30 mins and measured up to 90 secs by FMP dye based FLIPR membrane potential blue assay; format: cell-based
[12] = molecular target: T1, Gamma-aminobutyric acid receptor subunit alpha-4/beta-2/gamma-2; assay: Agonist activity at recombinant human GABA-A alpha4beta2gamma2S receptor transiently expressed in human tsA201 cells at >= 100 uM incubated for 30 mins and measured up to 90 secs by FMP dye based FLIPR membrane potential blue assay; format: cell-based
Homo sapiens [13] = organism: Homo sapiens; assay: Selectivity ratio of IC50 for human GAT2 expressed in Flp-In CHO cells to IC50 for human BGT1 expressed in Flp-In CHO cells; format: cell-based
Homo sapiens [14] = organism: Homo sapiens; assay: Selectivity ratio of IC50 for human GAT1 expressed in Flp-In CHO cells to IC50 for human BGT1 expressed in Flp-In CHO cells; format: cell-based
Homo sapiens [15] = organism: Homo sapiens; assay: Selectivity ratio of IC50 for human GAT3 expressed in Flp-In CHO cells to IC50 for human BGT1 expressed in Flp-In CHO cells; format: cell-based
Homo sapiens [16] = organism: Homo sapiens; assay: Agonist activity at recombinant human GABA-A alpha3beta2gamma2S receptor transiently expressed in human tsA201 cells at >= 300 uM incubated for 30 mins and measured up to 90 secs by FMP dye based FLIPR membrane potential blue assay; format: cell-based

T2 sequence (P24046 whole entry): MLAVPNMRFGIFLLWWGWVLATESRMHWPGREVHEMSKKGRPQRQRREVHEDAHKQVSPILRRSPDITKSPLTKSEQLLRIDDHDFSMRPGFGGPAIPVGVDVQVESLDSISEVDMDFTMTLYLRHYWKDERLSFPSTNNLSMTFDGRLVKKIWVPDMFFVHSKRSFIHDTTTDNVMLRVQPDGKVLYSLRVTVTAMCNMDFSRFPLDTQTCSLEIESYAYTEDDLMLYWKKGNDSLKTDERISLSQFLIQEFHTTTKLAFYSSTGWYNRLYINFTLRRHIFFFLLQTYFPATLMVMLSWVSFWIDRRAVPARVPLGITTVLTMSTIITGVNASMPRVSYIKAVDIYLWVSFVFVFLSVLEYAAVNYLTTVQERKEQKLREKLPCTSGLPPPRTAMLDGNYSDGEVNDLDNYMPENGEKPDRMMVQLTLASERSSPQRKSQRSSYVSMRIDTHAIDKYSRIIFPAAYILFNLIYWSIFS

pKa at 1000 µM [1]: 9.63
SMILES: O=C(O)CC1CNC=N1 (configuration not stated)

pKa at 1000 µM [1]: 10.1
SMILES: NC1=NC(CC(=O)O)CN1 (configuration not stated)
Ratio IC50 (Homo sapiens [13]): 14 to 44 | Ratio IC50 (Homo sapiens [14]): 14 to 44 | Ratio IC50 (Homo sapiens [15]): 14 to 44

Further lines, the molecule ahead of its results:

SMILES: NC1=NC(CC(=O)O)CS1 (configuration not stated)
pKa at 1000 µM [1]: 8.62

SMILES: C[C@@H]1SC(N)=N[C@@H]1CC(=O)O (relative stereo)
Activity [2]: Active | Activity [3]: inactive | pEC50 [4]: inactive | Activity [5]: Active | IC50 [6]: 100 µM

SMILES: O=C(O)C[C@@H]1CCNC1
Activity [2]: Active | Activity [7]: Active | Activity (Homo sapiens [8]): Active | pEC50 [4]: inactive | pEC50 (Homo sapiens [9]): inactive | Activity [10]: Active

SMILES: C[C@@H](C(=O)O)[C@@H]1CSC(N)=N1 (relative stereo)
Activity [11]: Active

SMILES: C[C@@H](C(=O)O)[C@H]1CSC(N)=N1 (relative stereo)
Activity [12]: Active | Activity [3]: inactive | IC50 [6]: 300 µM

SMILES: C[C@H]1SC(N)=N[C@@H]1CC(=O)O (relative stereo)
Activity [2]: Active | Activity [7]: Active | Activity (Homo sapiens [16]): Active | pEC50 [4]: inactive | pEC50 (Homo sapiens [9]): inactive | Activity [10]: Active
